# PMC10388297, “Mixture-Based Screening of Focused Combinatorial Libraries by NMR: Application to the Antiapoptotic Protein hMcl-1” (Journal of Medicinal Chemistry, 2023)
# Where “and” joins values, the source holds several entries; their conditions need not be identical. Equal values may be shown once. Read-outs that look alike come from different tables or passages of the source.
# How the values were obtained:
# Type in all cases: binding
# [1] = target: T1, hBfl-1 (Homo sapiens, UniProt Q16548); assay: DELFIA displacement assay, hBfl-1; settings: hBfl-1 15 nM
# T1 sequence (Q16548 1-175): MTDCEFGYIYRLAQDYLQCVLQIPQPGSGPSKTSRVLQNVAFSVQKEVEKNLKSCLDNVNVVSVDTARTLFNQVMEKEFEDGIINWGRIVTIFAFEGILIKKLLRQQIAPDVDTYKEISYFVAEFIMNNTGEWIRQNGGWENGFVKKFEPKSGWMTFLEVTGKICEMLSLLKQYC
# Method: (§1) Each well of 96-well streptavidin-coated plates (PerkinElmer) was incubated with 100 μL of a 600 ng/mL biotinylated-BH3 peptide of sequence biotin-amino-hexanoic acid-[…]-NH2 for 2 h and washed 3 times with a wash solution (PerkinElmer). Subsequently, a mixture containing 11 μL of protein and a serial dilution of the test compounds as well as 89 μL of an Eu-N1-labeled anti-6x-His antibody (PerkinElmer) was added to each well and incubated for 2 h. Plates were then washed 3 times, and 200 μL of enhancement solution (PerkinElmer) was added to each well. After a 10 min incubation, fluorescence measurements were taken with a Victor X5 microplate reader with the excitation and emission wavelengths of 340 and 615, respectively. All the incubations were performed at room temperature. The final protein concentrations used for hBfl-1 and hMcl-1 were 15 and 16 nM, respectively and the final anti-6x-His antibody used was 22.2 ng/well. Fluorescence readings were normalized to those of 1% DMSO-treated wells and reported as % inhibition. Prism 9 (GraphPad) was used to calculate IC50 values.
# [2] = target: T2, hMcl-1 (Homo sapiens, UniProt Q07820); assay: Isothermal titration calorimetry
# T2 construct: His tag (N); made in house; host or cells: E. coli BL21 (DE3) gold pLysS
# T2 sequence (Q07820 172-323): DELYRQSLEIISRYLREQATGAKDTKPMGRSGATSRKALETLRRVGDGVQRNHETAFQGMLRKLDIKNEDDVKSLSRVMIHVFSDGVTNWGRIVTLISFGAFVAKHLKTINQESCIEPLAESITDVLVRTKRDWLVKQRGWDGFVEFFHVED
# Method: Isothermal titration calorimetry measurements were performed using an Affinity ITC autosampler from TA Instruments (New Castle, DE). The titrations were performed in a direct fashion by titrating the ligand solution into the protein. All the measurements were performed at 25 °C dissolving the agents in 50 mM phosphate at pH 7.5, 150 mM NaCl, and a final DMSO concentration of 1%. To test compound 12, the syringe was filled with a 2 mM solution of compound 12, and 20 injections of 5 μL each were performed into the cell containing a 100 μM solution of the protein. The injections were made at 200 s intervals with a stirring speed of 75 rpm. To test compound 50, the syringe was filled with a 500 μM solution of compound 50, and 20 injections of 5 μL each were performed into the cell containing a 50 μM solution of the protein. The injections were made at 200 s intervals with a stirring speed of 75 rpm. All the solutions were kept in the autosampler at 4 °C. The analysis of the thermodynamics signatures and for dissociation constant determination was performed by NanoAnalyze software (TA Instruments, New Castle, DE) and subsequently exported into Microsoft Excel.
# [3] = target: T3, 13Cε-Met-labeled hMcl-1 (Homo sapiens, UniProt Q07820); assay: 2D [13C,1H] correlation spectra with 13Cε-Met-labeled hMcl-1
# T3 construct: His tag (N); made in house; host or cells: E. coli BL21 (DE3) gold pLysS
# T3 sequence (Q07820 172-323): as above
# Description: To further corroborate the possible binding location and pose of the agent, we collected NMR experiments with a selectively ^13C^ε-Met-labeled hMcl-1.[1] In the sequence of hMcl-1, there are 4 Met residues, where two located outside the biding pocket, namely, Met 170 and Met 199, while two Met residues are directly present in the BH3 binding pocket, namely, Met 231 and Met 250 (Figure 8). […] Smaller yet still relatively large perturbations were also observed in the resonances of Met 250, located also across the indole in our model but not as directly juxtaposed as Met 231 with our ligand (Figure 8). […] This piece of data supports the location of the binding of our agent and possibly also corroborates its predicted binding pose.
# NMR spectra were acquired on a Bruker Avance III 700 MHz spectrometer equipped with a TCI cryoprobe. All NMR data were processed and analyzed using TopSpin 4.1.0 (Bruker, Billerica, MA). For the mixture screening, each of the 96 mixtures was dissolved into a 5 mm NMR tube to a final concentration of 2 mM in the presence of 20 μM hMcl-1 in a buffer containing 40 mM Tris pH = 7.5, 150 mM NaCl, and 1 mM DTT. For each mixture, 1D ^1H-aliph experiments were acquired. For ranking purposes, a total chemical shift perturbation generated by each mixture to the five peaks around 0 ppm in the 1D ^1H-aliph spectra of hMcl-1 was considered (Figure 4). […]
# [4] = target: T2, hMcl-1; assay: DELFIA displacement assay, biotinylated BH3 peptide from hMcl-1; settings: for IC50: hMcl-1 16 nM, room temperature
# Method: (§2) Perturbations observed by ligand binding can be measured and qualitatively used to roughly rank order compound binding, or compound mixtures in this case, in the initial screening campaign (Figure 2). As a control, we used a potent hMcl-1 binding ligand A1210477[37] (Figure 2A).
# as §1
# [5] = target: T2, hMcl-1; assay: 1D 1H NMR aliphatic region chemical shift perturbation / titration; settings: for CSP1 (Table S4) / CSP1 (Table S3): total shift of the two peaks overlapping at -0.616 ppm
# Description: as §2
# NMR spectra were acquired on a Bruker Avance III 700 MHz spectrometer equipped with a TCI cryoprobe. All NMR data were processed and analyzed using TopSpin 4.1.0 (Bruker, Billerica, MA). For the mixture screening, each of the 96 mixtures was dissolved into a 5 mm NMR tube to a final concentration of 2 mM in the presence of 20 μM hMcl-1 in a buffer containing 40 mM Tris pH = 7.5, 150 mM NaCl, and 1 mM DTT. For each mixture, 1D ^1H-aliph experiments were acquired. For ranking purposes, a total chemical shift perturbation generated by each mixture to the five peaks around 0 ppm in the 1D ^1H-aliph spectra of hMcl-1 was considered (Figure 4). 2D-[^13C,^1H]-HSQC experiments were acquired with 20 μM protein using 32 scans with 2048 and 256 complex data points in the ^1H and ^13C dimensions, respectively, at 298 K.
# [6] = 25 °C, pH 7.5, 1% DMSO, read-out: Kd by isothermal titration calorimetry
# [7] = supplementary CSV, values match ITC, read-out: Kd (uM) (n=2)
smiles,measurement,setting,value
"COc1cc(C)c(C(C)C)cc1S(=O)(=O)NC(CC(=O)O)C(=O)N1C(C(=O)NC(Cc2c[nH]c3ccccc23)C(N)=O)CC2CCCCC21 [Compound 50, (3R)-4-((2S)-2-(((S)-1-Amino-3-(1H-indol-3-yl)-1-oxopropan-2-yl)carbamoyl)octahydro-1H-indol-1-yl)-3-((5-isopropyl-2-methoxy-4-methylphenyl)sulfonamido)-4-oxobutanoic Acid]",activity against hBfl-1 in DELFIA displacement assay,[1],inactive
same,"ΔH, isothermal titration calorimetry",[2]; 25 °C,-41.8 kJ/mol
same,Kd,[2]; [6],~2 µM and 1.71 µM
same,LE,[2]; from ITC Kd,~0.16
same,Kd,[2]; [7],1.71 ± 0.3 µM
same,koff,"[3]; 20 μM 13Cε-Met hMcl-1, read-out: koff, estimated upper limit from Met 231 chemical shift differences (slow exchange)",< 519 s⁻¹
same,dissociation constant corresponding to off-rate,[3]; assuming diffusion limited on rate of 10^9 M^–1 s^–1,low micromolar
same,IC50,"[4]; read-out: IC50, displacement of biotinylated-BIM peptide from hMcl-1 (DELFIA)",7.5 µM
same,CSP2 (Table S4),"[5]; shift of the peak at -0.08 ppm, 1D-1H-aliphatic spectrum",+ (0.01 ppm < CSP < 0.05 ppm)
same,CSP1 (Table S4),[5],+++ (0.1 ppm < CSP < 0.13 ppm)
COc1cc(C)c(C(C)C)cc1S(=O)(=O)N[C@@H](CCC(=O)O)C(=O)N[C@@H](CC1CCCCC1)C(N)=O [Compound 14],CSP1 (Table S3),[5],+ (0.01 ppm < CSP < 0.05 ppm)
Cc1nn(C)c(COc2ccc(N3CCN(S(=O)(=O)N(C)C)CC3)cc2)c1-c1cccc2c(CCCOc3cccc4ccccc34)c(C(=O)O)n(CCN3CCOCC3)c12 [Compound A1210477],LE,[4]; from DELFIA IC50,~0.17
same,IC50,"[4]; read-out: IC50, displacement of biotinylated BH3 peptide from hMcl-1 (DELFIA)",0.014 µM
"COc1cc(C)c(C(C)C)cc1S(=O)(=O)N[C@H](CC(=O)O)C(=O)N[C@@H](CC1CCCCC1)C(=O)N[C@H](Cc1c[nH]c2ccccc12)C(N)=O [Compound 21, (R)-4-(((S)-1-(((R)-1-Amino-3-(1H-indol-3-yl)-1-oxopropan-2-yl)amino)-3-cyclohexyl-1-oxopropan-2-yl)amino)-3-((5-isopropyl-2-methoxy-4-methylphenyl)sulfonamido)-4-oxobutanoic Acid]","CSP in the 1D-1H-aliphatic region of hMcl-1, comparison among P4 compounds","[5]; 20 μM hMcl-1, compound 100 μM",bigger CSP
same,Kd,"[5]; 1D 1H NMR, hMcl-1 20 μM, read-out: dissociation constant estimated by NMR titration",~30 µM
same,CSP1 (Table S4),[5],+++ (0.1 ppm < CSP < 0.13 ppm)
COc1ccc2[nH]cc(CC(NC(=O)C3CC4CCCCC4N3C(=O)C(CC(=O)O)NS(=O)(=O)c3cc(C(C)C)c(C)cc3OC)C(N)=O)c2c1 (stereo not shown) [Compound 59],Kd,[2]; [6],4.62 ± 0.37 µM
same,Kd,[2]; [7],4.62 ± 0.4 µM
COc1cc(C)c(C(C)C)cc1S(=O)(=O)N[C@H](CCC(=O)O)C(=O)N[C@@H](CC1CCCCC1)C(N)=O [Compound 15],CSP1 (Table S3),[5],+ (0.01 ppm < CSP < 0.05 ppm)
COc1cc(C)c(C(C)C)cc1S(=O)(=O)N[C@H](CC(=O)O)C(=O)N[C@@H](CC1CCCCC1)C(N)=O [Compound 13],CSP1 (Table S3),[5]; listed as Compound (13),+ (0.01 ppm < CSP < 0.05 ppm)
COc1ccc(C(C)C)cc1S(=O)(=O)NC(CC(=O)O)C(=O)N1C(C(=O)NC(Cc2c[nH]c3ccccc23)C(N)=O)CC2CCCCC21 (stereo not shown) [Compound 60],Kd,[2]; [6],2.84 ± 0.67 µM
same,Kd,[2]; [7],2.84 ± 0.7 µM
"COc1cc(C)c(C(C)C)cc1S(=O)(=O)N[C@H](CC(=O)O)C(=O)N[C@@H](CC1CCCCC1)C(N)=O [Compound 12, (R)-4-(((S)-1-Amino-3-cyclohexyl-1-oxopropan-2-yl)amino)-3-((5-isopropyl-2-methoxy-4-methylphenyl)sulfonamido)-4-oxobutanoic Acid]",Kd,[2]; [6],~450 µM
same,dissociation constant estimated by NMR titration,"[5]; 1D 1H NMR, hMcl-1 20 μM",triple-digit micromolar
same,CSP1 (Table S3),[5]; listed as Compound (12),++ (0.05 ppm < CSP < 0.1 ppm)
